ChEMBL document CHEMBL1129962, “Nonsteroidal anti-inflammatory drugs as scaffolds for the design of 5-lipoxygenase inhibitors” (J Med Chem, 1997)

Tests used:
[1] = target: Prostaglandin G/H synthase 1 (Homo sapiens) (UniProt P23219); experiment: Inhibition activity against recombinant human Prostaglandin G/H synthase 1; parameters: concentration or dose not given beside the values; conditions: concentration not given here
[2] = target: T1, Prostaglandin G/H synthase 2 (Homo sapiens) (UniProt P35354); experiment: Inhibition activity against recombinant human Prostaglandin G/H synthase 2; parameters: concentration or dose not given beside the values; conditions: concentration not given here
T1 sequence (whole entry): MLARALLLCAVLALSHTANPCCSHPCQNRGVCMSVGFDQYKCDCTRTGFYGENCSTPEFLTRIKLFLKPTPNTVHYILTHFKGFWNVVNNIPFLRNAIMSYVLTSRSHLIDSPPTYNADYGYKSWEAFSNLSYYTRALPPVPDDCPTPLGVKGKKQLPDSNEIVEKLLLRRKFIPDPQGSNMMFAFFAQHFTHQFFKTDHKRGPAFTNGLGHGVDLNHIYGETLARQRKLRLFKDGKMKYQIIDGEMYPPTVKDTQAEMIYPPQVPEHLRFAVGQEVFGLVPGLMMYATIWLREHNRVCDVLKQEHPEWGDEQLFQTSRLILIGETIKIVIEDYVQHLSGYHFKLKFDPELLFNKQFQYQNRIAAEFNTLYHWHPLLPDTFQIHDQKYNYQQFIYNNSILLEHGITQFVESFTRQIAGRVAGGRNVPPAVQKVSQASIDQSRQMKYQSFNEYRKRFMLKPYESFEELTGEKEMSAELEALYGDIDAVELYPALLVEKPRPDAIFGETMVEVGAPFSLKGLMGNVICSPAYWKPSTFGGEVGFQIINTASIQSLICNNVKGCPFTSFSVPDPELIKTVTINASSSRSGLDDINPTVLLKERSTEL

[3] = target: T2, Polyunsaturated fatty acid 5-lipoxygenase (Homo sapiens, UniProt P09917); experiment: Inhibitory activity against 5-lipoxygenase in Human whole blood (HWBL) stimulated with calcium ionophore (A23187) and LTB4 measured by enzyme immunoassay; format: functional, tissue-based
T2 sequence (P09917 whole entry): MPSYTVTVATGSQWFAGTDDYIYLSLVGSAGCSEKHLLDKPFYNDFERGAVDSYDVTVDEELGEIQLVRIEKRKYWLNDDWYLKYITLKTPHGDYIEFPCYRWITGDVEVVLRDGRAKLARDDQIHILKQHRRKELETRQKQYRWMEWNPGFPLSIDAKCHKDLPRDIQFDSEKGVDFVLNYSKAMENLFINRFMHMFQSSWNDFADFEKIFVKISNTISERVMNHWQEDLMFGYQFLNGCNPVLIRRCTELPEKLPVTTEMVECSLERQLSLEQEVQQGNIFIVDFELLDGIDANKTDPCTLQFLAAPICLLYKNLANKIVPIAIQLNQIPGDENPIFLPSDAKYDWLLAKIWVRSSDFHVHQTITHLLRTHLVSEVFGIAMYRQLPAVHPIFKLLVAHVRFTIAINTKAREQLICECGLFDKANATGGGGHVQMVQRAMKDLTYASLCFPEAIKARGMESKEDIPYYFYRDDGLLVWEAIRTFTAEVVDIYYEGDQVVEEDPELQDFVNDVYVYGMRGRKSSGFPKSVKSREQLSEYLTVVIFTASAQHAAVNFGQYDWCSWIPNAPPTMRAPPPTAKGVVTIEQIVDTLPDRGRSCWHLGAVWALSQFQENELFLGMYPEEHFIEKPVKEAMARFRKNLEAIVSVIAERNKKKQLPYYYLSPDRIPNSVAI

[4] = target: T3, Polyunsaturated fatty acid 5-lipoxygenase (Rattus norvegicus, UniProt P12527); experiment: Inhibitory activity against 5-lipoxygenase catalysis (5-LO) in sonicated rat basophilic leukemia cell lysate; format: functional
T3 sequence (P12527 whole entry): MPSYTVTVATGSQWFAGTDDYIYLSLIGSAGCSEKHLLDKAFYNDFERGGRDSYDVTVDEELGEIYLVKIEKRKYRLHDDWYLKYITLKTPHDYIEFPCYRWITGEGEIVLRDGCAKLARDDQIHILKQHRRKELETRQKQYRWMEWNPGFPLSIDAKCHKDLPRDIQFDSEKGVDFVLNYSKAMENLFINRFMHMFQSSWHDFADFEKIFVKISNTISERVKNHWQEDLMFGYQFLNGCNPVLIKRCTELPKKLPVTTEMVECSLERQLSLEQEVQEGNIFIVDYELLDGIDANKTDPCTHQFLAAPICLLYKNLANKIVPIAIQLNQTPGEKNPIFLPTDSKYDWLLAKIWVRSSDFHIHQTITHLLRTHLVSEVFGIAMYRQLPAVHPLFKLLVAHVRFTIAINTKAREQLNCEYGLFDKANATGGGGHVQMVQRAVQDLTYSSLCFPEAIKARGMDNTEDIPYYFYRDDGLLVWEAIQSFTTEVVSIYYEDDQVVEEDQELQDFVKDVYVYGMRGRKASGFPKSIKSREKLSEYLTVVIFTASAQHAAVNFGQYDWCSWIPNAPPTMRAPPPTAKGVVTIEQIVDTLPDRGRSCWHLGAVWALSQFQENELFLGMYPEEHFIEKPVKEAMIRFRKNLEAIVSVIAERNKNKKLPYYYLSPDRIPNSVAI

Sequence of Prostaglandin G/H synthase 1 (Homo sapiens) (P23219 whole entry): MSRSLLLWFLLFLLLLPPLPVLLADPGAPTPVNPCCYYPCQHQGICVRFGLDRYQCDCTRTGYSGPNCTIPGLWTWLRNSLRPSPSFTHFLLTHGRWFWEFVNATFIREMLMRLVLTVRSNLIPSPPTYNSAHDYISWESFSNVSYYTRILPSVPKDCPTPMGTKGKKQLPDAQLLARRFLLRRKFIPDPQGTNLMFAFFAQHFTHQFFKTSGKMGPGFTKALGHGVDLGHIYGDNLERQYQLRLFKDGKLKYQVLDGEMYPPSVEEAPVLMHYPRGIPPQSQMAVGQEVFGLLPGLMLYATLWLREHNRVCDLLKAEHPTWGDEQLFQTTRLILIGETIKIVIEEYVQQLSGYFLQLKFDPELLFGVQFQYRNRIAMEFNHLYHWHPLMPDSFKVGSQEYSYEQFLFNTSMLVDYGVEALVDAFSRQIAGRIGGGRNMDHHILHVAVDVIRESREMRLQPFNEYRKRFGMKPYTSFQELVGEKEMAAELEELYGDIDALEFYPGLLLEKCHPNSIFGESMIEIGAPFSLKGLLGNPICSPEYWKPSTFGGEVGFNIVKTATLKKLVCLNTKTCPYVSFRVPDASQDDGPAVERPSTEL

inhibition [1] [%]	inhibition [2] [%]	IC50 [3] [nM]	IC50 [4] [nM]	Compound
0	0	–	–	CC(c1cc2ccccc2s1)N(O)C(N)=O (stereo not drawn)
9	48	6100	–	COc1ccc2c(c1)c(CCN(O)C(N)=O)c(C)n2C(=O)c1ccc(Cl)cc1
0	0	1600	400	COc1ccc2cc([C@H](C)N(O)C(N)=O)ccc2c1
51	0	23000	–	CC(C)Cc1ccc(C(C)NC(=O)NO)cc1 (stereo not drawn)
0	2	7100	–	COc1ccc2cc([C@H](C)NC(=O)NO)ccc2c1
37	0	2500	600	CC(C)Cc1ccc(C(C)N(O)C(N)=O)cc1 (stereo not drawn)
64	88	1000	200	COc1ccc2c(c1)c(CNC(=O)N(C)O)c(C)n2C(=O)c1ccc(Cl)cc1
